These are literature values, as cited in US12280067B2 (Phenolics, LLC, priority 2019, dated 2025).

For one data set, the system named is Caco-2 monolayers. The note with it: Dash et al. 2001.
For data set [1] the following is noted: rats, injected intravenously.
The conditions of data set [2]: oral, 6-week period, versus creatine monohydrate.

SMILES strings stand for the structures.

For the compound `CN(CC(=O)O)C(=N)N` [creatine], in the data set on Caco-2 monolayers, the “Permeability via Caco-2 monolayers” value is recorded as “quite low”.

Regarding `CN(CC(=O)O)C(=N)NP(=O)(O)O` [phosphocreatine, N-Methyl-N-(phosphono-carbamimidoyl)glycine], in data set [1], the “ATP levels in red blood cells” value was “significant elevation”; the “Bio-transformation and elimination in the body” value is on record as “very rapidly”. In addition, the “Effectiveness in achieving lean body mass, desired body weight and improved strength” value in data set [2] was “as effective as creatine monohydrate”.
